This note sets out measurements from patent US20240182406A1, “COMPOUNDS AS SOLUBLE EPOXIDE HYDROLASE INHIBITORS” (UNIVERSITAT DE BARCELONA, priority 2021, published 2024).

A short description of series [1]: In vitro determination of microsomal stability. Type of series: in vitro ADME. As to conditions: human microsomes, 37° C., samples at 0-60 min. How it is done: The human recombinant microsomes employed were purchased from Tebu-Xenotech. […] Samples (75 μL) were taken from each well at 0, 10, 20, 40 and 60 min and transferred to a plate containing 4° C. 75 μL acetonitrile and 30 μL of 0.5% formic acid in water were added for improving the chromatographic conditions. The plate was centrifuged (46000 g, 30 min) and supernatants were taken and analyzed in a UPLC-MS/MS (Xevo-TQD, Waters) by employing a BEH C18 column and an isocratic gradient of 0.1% formic acid in water:0.1% formic acid acetonitrile (60:40). The metabolic stability of the compounds was calculated from the logarithm of the remaining compounds at each of the time points studied.

Series [2] concerns 5×FAD mice. Nature of the series: Novel Object Recognition Test (NORT) in 5×FAD mouse model of Alzheimer disease. It counts as in vivo. As to conditions: 5×FAD model, 5 mg/kg, treated vs control groups. From the text: 5×FAD (tg6799) is an early-onset mouse transgenic model which overexpress mutant human APP(695) with the Swedish (K670N, M671L), Florida (I716V) and London (V717I) Familial Alzheimer's Disease (FAD) mutations along with human PS1 harbouring two FAD mutations (M146L and L286V). The Tg6799 line used is the original hybrid B6SJL background, and this hybrid B6SJL strain is used as a control of healthy animals. The mouse Thy1 promoter regulates both transgenes to drive overexpression in the brain. […]
The test compound was dissolved in 1.8% hydroxypropyl-beta-cyclodextrin and concentration in water was calculated according to the weekly animal consumption to reach the precise daily dose. […] The amount of water that the animals drink was monitored weekly, by the cage, and drug concentration was adjusted every week to reach the precise dose. […]
Mice were placed in a 90°, two-arm, 25-cm-long, 20-cm-high, 5-cm-wide black maze. […] During this second trial, objects A and B were placed in the maze and the behaviour of the mice was recorded with a camera. The time that the mice explored the New object (TN) and Time that the mice explored the Old object […] (TO) were measured. […]

Series [3] relates to GFAP. Nature of the series: Western blot of hippocampus, neuroinflammation marker GFAP (5×FAD mice). It counts as in vivo, mouse. As to conditions: 5×FAD male mice, 5 mg/kg, 4 weeks, Arbitrary Units, control as 100%. From the text: (§1) 5×FAD (tg6799) is an early-onset mouse transgenic model which overexpress mutant human APP(695) with the Swedish (K670N, M671L), Florida (I716V) and London (V717I) Familial Alzheimer's Disease (FAD) mutations along with human PS1 harbouring two FAD mutations (M146L and L286V). The Tg6799 line used is the original hybrid B6SJL background, and this hybrid B6SJL strain is used as a control of healthy animals. The mouse Thy1 promoter regulates both transgenes to drive overexpression in the brain. 5×FAD mice recapitulate major features of AD amyloid pathology and is a useful model of intraneuronal Abeta-42 induced neurodegeneration with amyloid increase brain content and amyloid plaque formation and tau hyperphosphorylation (J Neurosci. 2006, 26(40), 10129-10140).
(§2) The test compound was dissolved in 1.8% hydroxypropyl-beta-cyclodextrin and concentration in water was calculated according to the weekly animal consumption to reach the precise daily dose. A freshly made weekly replaces the drinking solution. The amount of water that the animals drink was monitored weekly, by the cage, and drug concentration was adjusted every week to reach the precise dose. […]
(§3) Afterwards, membranes were washed and incubated with secondary antibodies for 1 h at room temperature. […] Immunodetection of GADPH routinely monitored protein loading. […]
For orientation: Immunoblotting shows a protein as a band on a membrane.

For series [4], the system named is TREM2. Nature of the series: Western blot of hippocampus, neuroinflammation marker TREM2 (5×FAD mice). It counts as in vivo, mouse. The following applies: 5×FAD male mice, 5 mg/kg, 4 weeks, Arbitrary Units, control as 100%.
Text: as §1, §2, §3

The subject of series [5] is amyloid plaques. Nature of the series: Thioflavin S staining of amyloid plaques in brain slices (5×FAD mice). Type of series: in vivo, mouse. The following applies: 5×FAD male mice 6-month-old, 5 mg/kg, 4 weeks, mean ± SEM.
Text: as §1
The test compound was dissolved in 1.8% hydroxypropyl-beta-cyclodextrin and concentration in water was calculated according to the weekly animal consumption to reach the precise daily dose. A freshly made weekly replaces the drinking solution. The amount of water that the animals drink was monitored weekly, by the cage, and drug concentration was adjusted every week to reach the precise dose. After 4 weeks of maintained treatment, mice were studied in the behavioural tests.
After NORT, animals were sacrificed and the whole hippocampus dissected or brain slices from control and treated mice obtained by using a cryostat. […]

Series [6] relates to SH-SY5Y cells. The following applies: 100 μM, 24 h. Here is the method:
50 ul of Cell titer Glo reagent was added to each well and incubated for 10 min.

The mark [7] stands for this setting: listed as compound of example 2.

Marks after values point to notes of the source that are not given here.

For the compound `O=C(NC12CC3CC(Cl)(CC(C1)c1ccccc13)C2)N[C@H]1CC[C@H](Oc2ccc(C(=O)O)cc2)CC1` [Example 2, 4-[((1r,4r)-4-(3-(9-chloro-5,6,8,9,10,11-hexahydro-7H-5,9:7,11-dimethanobenzo[9]annulen-7-yl)ureido)cyclohexyl)oxy]benzoic acid], the “Microsomal stability (% remanent)” value in series [1] was 89%. In addition, in series [2], the “memory deficits by NORT” value is reported as “reduced memory deficits”. The GFAP protein levels in series [3] (listed as Cpd. Ex. 2) is 125.85 ± 9.21*^; in series [3] (setting [7]), “significant diminution in the protein levels”. Moreover, the TREM2 protein levels is recorded as 118.42 ± 6.53*^ in series [4] (listed as Cpd. Ex. 2) and “significant diminution in the protein levels” in series [4] (setting [7]). For the same compound, the “Number of Aβ plaques” value in series [5] stood at 292 ± 83. Besides, in series [6], the “neuronal cell toxicity (viability)” value is “did not show any neuronal cell toxicity”.
